Measured values published in a melting point compilation (Tetko et al.; mined from patent text by program, amines drawn as free bases though some values may be those of a salt).

Compound	melting point
CCOC(=O)c1nn(-c2c(Cl)cc(C(F)(F)F)cc2Cl)cc1O	140 to 143 °C
CCOc1n[nH]c(=O)n1C	126 °C
CCCCCCCCCCCCCCCc1c([N+](=O)[O-])cc([N+](=O)[O-])c(O)c1[N+](=O)[O-]	53 to 56 °C
CCCN(CCC)C1CCC2=C(CCCC2=NO)C1 (stereo not given)	99 to 102 °C
C[C@]1(COC(=O)N2CCC(Nc3ccc(C(F)(F)F)cc3)CC2)Cn2cc([N+](=O)[O-])nc2O1	137 to 140 °C
C=CC(=O)N1CCc2cc(OC)c(OC)cc2C12CCC(C(=O)OCC)(C(=O)OCC)CC2C1c2cc(OC)c(OC)cc2CCN1C(C)=O (stereo not given)	162 to 165 °C
CCNC(=O)c1c(Cl)cc(C=O)cc1[Si](C)(C)C	95 to 97 °C
CC1(C(F)(F)F)CC(=O)CC(=O)C1	150 to 152 °C
CCCC1NCCc2ccc(NC(=N)c3cccs3)cc21 (stereo not given)	127 to 128 °C
Cc1cc2cc(C#N)c(Cl)nc2s1	171 to 173 °C
CCCCCCCCCCCCCCOc1ccc(OCc2ccccc2)c(C(=O)N(CC(=O)OCC)CC(=O)OCC)c1	49 to 50 °C
COc1nc(C(Br)Br)c([N+](=O)[O-])cc1C	58.7 to 61.2 °C
CNC(=S)C1(c2cncc(Br)c2)CCCCC1=O (stereo not given)	201 to 203 °C
O=c1c2sc3ccccc3c2oc2cc(O)cc(O)c12	> 300 °C
CC(C)(C)OC(=O)N=C(NC(=O)OC(C)(C)C)N1CCC(n2ccc3ccccc32)CC1	115 to 118 °C
Clc1ccccc1N=Nc1ncc[nH]1	173 to 177 °C
Cc1cc(C)cc(Sc2c(C)c[nH]c(=O)c2NC=O)c1	221 to 222 °C
CC(C(=O)O)c1ccc2oc(N)nc2c1 (stereo not given)	225 to 229 °C
O=C(O)c1cc(N2C(=O)C3=C(CCCC3)C2=O)ccc1O	240 °C
NCC(CC(=O)O)CC1CC1 (stereo not given)	172 to 173 °C
COCOc1ccc2c(N)noc2c1	88 to 89 °C

Compound	melting point
CCCN(c1ccccc1)c1nc(C)nc(Cl)c1[N+](=O)[O-]	99.8 to 100 °C
O=C1NC(=S)NC(=O)C1=Cc1c[nH]c2ccccc12	320 °C
CC(C)(C)OC(=O)N1CCCCC1c1c[nH]c2ncccc12 (stereo not given)	144 to 145 °C
Cc1cc(C(C)(O)c2scnc2C)c(C)o1 (stereo not given)	100 to 102 °C
OCC1CCc2[nH]c3ccc(F)cc3c2C1 (stereo not given)	107 to 109 °C
CCCCCC(=O)c1c(CBr)n(C(=O)OC)c(=O)n1C(=O)OC	71 to 73 °C
Cc1oc2cc(C(CC(=O)O)CC(=O)O)ccc2c1C	190 to 192 °C
CCN(C)N1CSC(=Cc2cc(C(C)(C)C)c(O)c(C(C)(C)C)c2)C1=O	134 to 135 °C
CSc1ncncc1C(Cl)c1ccccc1F (stereo not given)	144 to 145 °C
Cc1cc(Oc2c(Cl)cc(C(F)(F)F)cc2Cl)nn1C(=O)NC1CCCC1	90 to 92 °C
CCc1sc2ccccc2c1C(=O)O	136 °C
CN1C(C)(C)CC(OP2OCC3(CO2)COP(OC2CC(C)(C)N(C)C(C)(C)C2)OC3)CC1(C)C (stereo not given)	106 °C
Nc1c(Cl)cc(C(O)CNCCCCCCOCCCCCCc2ncccn2)cc1Cl (stereo not given)	55 to 57 °C
CC(=O)C(Oc1cc(Cl)cc(C#N)c1)C(C)=O	105 to 108 °C
c1ccc2c(NCCc3c[nH]cn3)nsc2c1	222 to 224 °C
CC(=CC#N)c1cccc2cc[nH]c12	88 to 90 °C
CC(C(=O)O)c1ccc(CC2CCCC2=O)cc1 (stereo not given)	108 to 111 °C
COC(c1ccccc1)C1CCCCCC(Cc2ccccc2)C1=O (stereo not given)	83 to 84 °C
Cc1c(F)c(N2CCNCC2)c(C)c2c1c(=O)c(C(=O)O)cn2C1CC1	185 to 187 °C
NS(=O)(=O)OCC1COc2cc(Cl)c(Cl)cc2O1 (stereo not given)	109 to 111 °C
CCS(=O)(=O)N(CCCCC(N)=O)C1CC(C)(C)Oc2ccc(C)cc21 (stereo not given)	127 to 129 °C

Results, then the molecule that gave them:

melting point	Compound
230 to 232 °C	CS(=O)(=O)Cc1cccc(-c2nc(=O)c3ccccc3s2)n1
82 °C	Cc1cc(-n2ccnc2)c2cccc(OCc3c(Cl)ccc(S(=O)(=O)N4CCC[C@H]4C(=O)N(C)CCCN(C)CCCCO)c3Cl)c2n1
170 to 171 °C	O=C1SCC(O)=C1Cc1ccc(OCCc2ccccc2)cc1
62 to 64 °C	O=C(CCCCNC(=O)C(=O)c1cn2c3c(cccc13)CCC2)NOCc1ccccc1
131 to 132 °C	O=C1Nc2cccnc2N(CCCCN2CCCCC2)c2ccccc21
117 to 121 °C	CS(=O)(=O)c1ccc(C(CC2CCCC2)C(=O)Nc2nccs2)cc1C(F)(F)F (stereo not given)
220 to 222 °C	CCOc1ccc(-c2ccc3c(c2)C=C(C(=O)O)CCN3C=O)cc1F
311 °C	NS(=O)(=O)c1cnc(NC(=O)c2cnn3c(C(F)F)cc(-c4ccc(C(F)(F)F)cc4)nc23)s1
116 °C	O=C(O)/C=C/c1cccc(-c2nc(=O)c3ccccc3s2)n1
265 to 266 °C	NC(=O)c1cc(C(=O)O)c(O)c2ncc(Cc3ccc(F)cc3)cc12
143 to 144 °C	CCCCSc1cc(C(=O)O)cc(N)c1-c1ccccc1
316 to 318 °C	O=c1[nH]c2ccc(Cl)cc2c2cc(CO)nn12
276 to 278 °C	O=C(Nc1nnc(Cc2ccc(Cl)cc2)s1)c1ccc2cccnc2c1O
217 °C	CC(C)(C)c1cccc(S(=O)(=O)n2c(C(=O)c3ccc(C(=O)O)s3)cc3cc(C(F)(F)F)ccc32)c1
146 to 148 °C	C=CCn1nc(OCC(=O)c2cccs2)c(-c2ccc(F)cc2)c1-c1ccc(S(C)(=O)=O)cc1
176 to 177 °C	CS(=O)(=O)c1ccc(Oc2ccc([N+](=O)[O-])cc2[N+](=O)[O-])cc1
192 to 197 °C	O[C@H](COc1cccc2[nH]ccc12)CN1CCC(c2c[nH]c3c(Cl)c(Cl)ccc23)CC1
191 to 192 °C	ON=C1Cc2ccccc2C=Cc2ccccc21
126 to 128 °C	CCOC(=O)C1=C(C)NC(c2cscn2)=NC1c1ccccc1F (stereo not given)
114 °C	CCN(CC)CCN(c1cc(OC)c(C)cc1[N+](=O)[O-])S(=O)(=O)c1ccc(C)cc1

melting point	Compound
203 to 205 °C	Cn1nc(-c2ccccc2)c2c(C(F)(F)F)cc(OCC(=O)N[C@H]3CCc4ccccc43)nc21
250 to 251 °C	CC(=O)c1c(C)c2c(C)[nH]c(-c3ccccc3)c2[nH]c1=O
160 to 162 °C	CCc1cc(C#N)sc1-c1ccc2c(c1)C(C)(C)OC(=O)N2
112 °C	CCc1cc(-c2[nH]c3ccccc3c2C)cc(CC)c1O
51 to 58 °C	COC(=O)Cc1ccc(OCCNC(=O)C2Cc3ccccc3N2S(=O)(=O)c2ccc(-c3cc(C(F)(F)F)ccc3Cl)cc2)c(OC)c1 (stereo not given)
233 to 234 °C	O=C(O)Cn1cc(Cc2nc3cc(C(F)(F)F)ccc3s2)c2ccccc21
160 to 162 °C	COc1ccccc1-c1ccc(C(=O)O)cc1C
152 to 154 °C	COC(=O)C1=C(C=O)NC(C)=C(C(=O)OCC(C)C)C1c1ccccc1C#N (stereo not given)
108 °C	COc1ccc(CCCc2ccc(O)cc2O)c(OC)c1C
155 to 160 °C	O=C(CCCCCc1ccccc1)NNC(=O)c1ccc(O)cc1
132 to 133 °C	Cc1oc(-c2ccccc2)nc1COc1ccc2cc(/C=C/C=O)oc2c1
110 °C	CC(C)(C)N(NCc1ccccc1)C(=O)c1ccccc1
151 to 155 °C	COc1ccc(-n2nc(Sc3ccc(C(F)(F)F)cc3)c(C)c(C#N)c2=O)cc1
63 to 65 °C	O=Cc1cccc(CSCCNC(=O)c2c(Cl)cccc2Cl)c1
148 to 152 °C	Cc1nc(-c2ccc(OC3CCCCO3)cc2)cc(-c2c(Cl)ccc(Cl)c2Cl)c1C#N (stereo not given)
72 to 75 °C	CCCCCCCCCCCCCCOc1ccc(CNc2cccc(CO)c2)cc1
144 to 147 °C	COC(=O)C(=O)c1nsc(NC(=O)OCc2ccccc2)n1
204 to 205 °C	COc1ccc2nc(-n3nc4c(c3O)-c3ccccc3CC4)sc2c1
167 to 169 °C	CNC(=O)c1cccc2c(-c3ccccc3)c([N+](=O)[O-])oc12
222 to 226 °C	CC(=O)Nc1ccc(C2=NNC(=S)NC2C)cc1 (stereo not given)

melting point	Compound
190 to 192 °C	CC(=O)c1cccc(-c2cnn3c(-c4cccc(NC(=O)CC(C)C)c4)ccnc23)c1
90 to 93 °C	CN(CC(=O)c1cccn1Cc1ccc(Cl)cc1[N+](=O)[O-])Cc1ccccc1
141 to 142 °C	COc1cc(COc2cc(CC#N)n(-c3ccccc3)n2)ccc1OCc1nc(-c2ccco2)oc1C
102 to 103 °C	CCCc1nn(-c2ccc(C(F)(F)F)cn2)cc1CCCOc1c(CC(=O)O)cccc1C(C)C
189 to 190 °C	CC(=O)O[C@@H]1OCC[C@@H]1NC(=O)[C@H](CC(C)C)NS(=O)(=O)c1ccc(N)cc1
155 to 157 °C	CCn1cc2c(n1)c(Cl)nc1cc(OCc3ccccc3)ccc12
159 to 162 °C	O=C(OC(=O)N(c1ccccc1)c1ccccc1)N(c1ccccc1)c1ccccc1
190 to 192 °C	CC(=O)OC1CCC2C3C(Sc4ccc(Br)cc4)C(=O)c4cc(O)ccc4C3CCC12C (stereo not given)
97 °C	CC(C)[C@H](O)[C@@H](CCCCOc1cc(F)ccc1F)n1nc[nH]c1=S (racemic)
160 to 161 °C	CCCc1c(OCc2ccc(CSc3nnn[nH]3)cc2)ccc(C(C)=O)c1O
123 to 124 °C	COc1cc(OCC(CO)CO)c(C=CC(=O)c2ccc(S(N)(=O)=O)cc2)cc1-c1cccs1
132 to 135 °C	CC(=O)OCCCOc1cccc2cc(C#N)c(=O)oc12
56 to 59 °C	COC(=O)Cc1ccc(OCCNC(=O)C2Cc3ccccc3N2S(=O)(=O)c2ccc(-c3cc(C)ccc3C)cc2)cc1 (stereo not given)
166 to 168 °C	O=C(Nc1cc(-c2ccnc3c(C(=O)c4cccs4)cnn23)ccc1F)c1ccccc1Cl
127 to 129 °C	O=C1C(=O)c2ccccc2C2=C1SCC1(CCN(CCCOc3ccccc3)CC1)O2
157 to 158 °C	COc1ccc(-c2nc(SC)[nH]c2-c2ccc(OC)cc2)cc1
108 to 111 °C	Cn1nc(-c2ccccc2C(F)(F)F)nc1-c1ccccc1C(F)(F)F
235 °C	O=C(O)Cc1cc(C(=O)C=Cc2ccccc2Cl)ccc1O
